Measurements reported in US20100267561A1, “HERBICIDAL PYRIDAZINONE DERIVATIVES” (priority 2007, published 2010).

How the values were obtained:
Assay type in all cases: in vivo
[1] = system: wheat (Triticum aestivum); assay: Test A pre-/postemergence plant response
Outline: (§1)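 Seeds sown in loam–sand blend; test chemicals in non-phytotoxic solvent with surfactant applied preemergence as directed soil spray and, concurrently, postemergence to plants 2–10 cm tall at one- to two-leaf stage. Greenhouse ~10 days, then visual injury rating vs untreated controls on 0–100 scale (0 = no effect, 100 = complete control).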

[2] = system: velvetleaf (Abutilon theophrasti); assay: Test A pre-/postemergence plant response
Outline: as §1

[3] = system: large crabgrass (Digitaria sanguinalis); assay: Test A pre-/postemergence plant response
Outline: as §1

corn (Zea mays) = assay: Test A pre-/postemergence plant response
Outline: as §1

[4] = system: barnyardgrass (Echinochloa crus-galli); assay: Test A pre-/postemergence plant response
Outline: as §1

[5] = system: pigweed (Amaranthus retroflexus); assay: Test A pre-/postemergence plant response
Outline: as §1

[6] = system: giant foxtail (Setaria faberi); assay: Test A pre-/postemergence plant response
Outline: as §1

[7] = system: morningglory (Ipomoea coccinea); assay: Test A pre-/postemergence plant response
Outline: as §1

[8] = system: chickweed (Stellaria media); assay: Test B postemergence plant response; conditions: for Chickweed plant response rating: 8 g ai/ha, postemergence, 0-100 scale; for Plant response rating, Chickweed: Postemergence
Outline: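 Test compounds were applied postemergence to plants 2 to 18 cm tall (1- to 4-leaf stage). After 13 to 15 days in a greenhouse, each species was visually compared with untreated controls and rated 0 (no effect) to 100 (complete control).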

[9] = system: yellow nutsedge (Cyperus esculentus); assay: Test B pre-/postemergence plant response; conditions: for Nutsedge, Yellow plant response rating: 8 g ai/ha
Outline: (§2)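 Seeds were sown and sprayed preemergence, while plants at 2 to 18 cm (1- to 4-leaf stage) got postemergence sprays. Compounds were formulated in a non-phytotoxic solvent mixture with surfactant. After 13 to 15 days in a greenhouse, injury was rated visually against untreated controls, 0 (no effect) to 100 (complete control).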

[10] = system: bermudagrass (Cynodon dactylon); assay: Test B pre-/postemergence plant response; conditions: for Bermudagrass plant response rating: 8 g ai/ha
Outline: as §2

[11] = system: cocklebur (Xanthium strumarium); assay: Test B pre-/postemergence plant response; conditions: for Cocklebur plant response rating: 8 g ai/ha
Outline: as §2

[12] = Postemergence, 125 g ai/ha, 0 to 100 scale, 0 no effect, 100 complete control
[13] = Postemergence, 500 g ai/ha, 0 to 100 scale, 0 no effect, 100 complete control
[14] = Preemergence, 125 g ai/ha, 0 to 100 scale (0 no effect, 100 complete control)
[15] = Preemergence, 500 g ai/ha, 0 to 100 scale (0 no effect, 100 complete control)
[16] = Postemergence, 16 g ai/ha, scale 0 to 100
[17] = Postemergence, 31 g ai/ha, scale 0 to 100, 0 no effect, 100 complete control
[18] = Postemergence, 62 g ai/ha, scale 0 to 100
[19] = Preemergence, 16 g ai/ha, scale 0 to 100 (0 no effect, 100 complete control)
[20] = Preemergence, 31 g ai/ha, 0 to 100 scale, 0 no effect, 100 complete control
[21] = Preemergence, 62 g ai/ha, scale 0 to 100
[22] = Preemergence, scale 0 to 100 (0 no effect, 100 complete control)

Structure (SMILES): CCc1cc(-c2ccc(C(F)(F)F)cc2)nn1-c1c(OS(C)(=O)=O)cnn(C)c1=O [Compound 19]
- Plant response rating, Wheat [1, 12]: 60
- Plant response rating, Wheat [1, 13]: 90
- Plant response rating, Wheat [1, 14]: 90
- Plant response rating, Wheat [1, 15]: 100
- Plant response rating, Velvetleaf [2, 12]: 0
- Plant response rating, Velvetleaf [2, 13]: 0
- Plant response rating, Velvetleaf [2, 14]: 0
- Plant response rating, Velvetleaf [2, 15]: 0
- Plant response rating, Crabgrass, Large [3, 12]: 90
- Plant response rating, Crabgrass, Large [3, 13]: 100
- Plant response rating, Crabgrass, Large [3, 14]: 100
- Plant response rating, Crabgrass, Large [3, 15]: 100
- Plant response rating, Corn (corn (Zea mays); [12]): 90
- Plant response rating, Corn (corn (Zea mays); [13]): 90
- Plant response rating, Corn (corn (Zea mays); [14]): 80
- Plant response rating, Corn (corn (Zea mays); [15]): 90
- Plant response rating, Barnyardgrass [4, 12]: 100
- Plant response rating, Barnyardgrass [4, 13]: 100
- Plant response rating, Barnyardgrass [4, 14]: 100
- Plant response rating, Barnyardgrass [4, 15]: 100
- Plant response rating, Pigweed [5, 12]: 0
- Plant response rating, Pigweed [5, 13]: 0
- Plant response rating, Pigweed [5, 14]: 0
- Plant response rating, Pigweed [5, 15]: 0
- Plant response rating, Foxtail, Giant [6, 12]: 100
- Plant response rating, Foxtail, Giant [6, 13]: 100
- Plant response rating, Foxtail, Giant [6, 14]: 100
- Plant response rating, Foxtail, Giant [6, 15]: 100
- Plant response rating, Morningglory [7, 12]: 0
- Plant response rating, Morningglory [7, 13]: 0
- Plant response rating, Morningglory [7, 14]: 0
- Plant response rating, Morningglory [7, 15]: 0
- Chickweed plant response rating [8]: 0
- Plant response rating, Chickweed ([8]; 16 g ai/ha, scale 0 to 100): 0
- Plant response rating, Chickweed ([8]; 62 g ai/ha, scale 0 to 100): 0
- Nutsedge, Yellow plant response rating ([9]; postemergence, 0-100 scale): 0
- Plant response rating, Nutsedge, Yellow [9, 16]: 0
- Plant response rating, Nutsedge, Yellow [9, 17]: 0
- Plant response rating, Nutsedge, Yellow [9, 18]: 30
- Plant response rating, Nutsedge, Yellow [9, 19]: 0
- Plant response rating, Nutsedge, Yellow [9, 20]: 0
- Plant response rating, Nutsedge, Yellow [9, 21]: 0
- Nutsedge, Yellow plant response rating ([9]; Preemergence, scale 0 to 100): 0
- Bermudagrass plant response rating ([10]; postemergence, 0-100 scale): 80
- Plant response rating, Bermudagrass [10, 16]: 100
- Plant response rating, Bermudagrass [10, 17]: 100
- Plant response rating, Bermudagrass [10, 18]: 100
- Bermudagrass plant response rating [10, 22]: 0
- Plant response rating, Bermudagrass [10, 19]: 90
- Plant response rating, Bermudagrass [10, 20]: 98
- Plant response rating, Bermudagrass [10, 21]: 100
- Cocklebur plant response rating ([11]; postemergence, 0-100 scale): 0
- Plant response rating, Cocklebur [11, 16]: 0
- Plant response rating, Cocklebur [11, 17]: 0
- Plant response rating, Cocklebur [11, 18]: 0
- Plant response rating, Cocklebur [11, 19]: 0
- Plant response rating, Cocklebur [11, 20]: 0
- Plant response rating, Cocklebur [11, 21]: 0
- Cocklebur plant response rating ([11]; Preemergence, scale 0 to 100): 0

Structure (SMILES): CCc1cc(-c2ccc(Cl)c(Cl)c2)nn1-c1c(O)cnn(C)c1=O [Compound 20]
- Plant response rating, Wheat [1, 12]: 50
- Plant response rating, Wheat [1, 13]: 70
- Plant response rating, Wheat [1, 14]: 60
- Plant response rating, Wheat [1, 15]: 80
- Plant response rating, Velvetleaf [2, 12]: 0
- Plant response rating, Velvetleaf [2, 13]: 0
- Plant response rating, Velvetleaf [2, 14]: 0
- Plant response rating, Velvetleaf [2, 15]: 0
- Plant response rating, Crabgrass, Large [3, 12]: 80
- Plant response rating, Crabgrass, Large [3, 13]: 100
- Plant response rating, Crabgrass, Large [3, 14]: 90
- Plant response rating, Crabgrass, Large [3, 15]: 100
- Plant response rating, Corn (corn (Zea mays); [12]): 70
- Plant response rating, Corn (corn (Zea mays); [13]): 90
- Plant response rating, Corn (corn (Zea mays); [14]): 60
- Plant response rating, Corn (corn (Zea mays); [15]): 90
- Plant response rating, Barnyardgrass [4, 12]: 80
- Plant response rating, Barnyardgrass [4, 13]: 100
- Plant response rating, Barnyardgrass [4, 14]: 90
- Plant response rating, Barnyardgrass [4, 15]: 100
- Plant response rating, Pigweed [5, 12]: 0
- Plant response rating, Pigweed [5, 13]: 0
- Plant response rating, Pigweed [5, 14]: 0
- Plant response rating, Pigweed [5, 15]: 0
- Plant response rating, Foxtail, Giant [6, 12]: 90
- Plant response rating, Foxtail, Giant [6, 13]: 100
- Plant response rating, Foxtail, Giant [6, 14]: 90
- Plant response rating, Foxtail, Giant [6, 15]: 100
- Plant response rating, Morningglory [7, 12]: 0
- Plant response rating, Morningglory [7, 13]: 0
- Plant response rating, Morningglory [7, 14]: 0
- Plant response rating, Morningglory [7, 15]: 0
- Chickweed plant response rating [8]: 0
- Plant response rating, Chickweed ([8]; 16 g ai/ha, scale 0 to 100): 0
- Plant response rating, Chickweed ([8]; 31 g ai/ha, scale 0 to 100, 0 no effect, 100 complete control): 0
- Plant response rating, Chickweed ([8]; 62 g ai/ha, scale 0 to 100): 0
- Nutsedge, Yellow plant response rating ([9]; postemergence, 0-100 scale): 0
- Plant response rating, Nutsedge, Yellow [9, 16]: 0
- Plant response rating, Nutsedge, Yellow [9, 17]: 0
- Plant response rating, Nutsedge, Yellow [9, 18]: 0
- Plant response rating, Nutsedge, Yellow [9, 20]: 0
- Plant response rating, Nutsedge, Yellow [9, 21]: 0
- Nutsedge, Yellow plant response rating ([9]; Preemergence, scale 0 to 100): 0
- Bermudagrass plant response rating ([10]; postemergence, 0-100 scale): 0
- Plant response rating, Bermudagrass [10, 16]: 0
- Plant response rating, Bermudagrass [10, 17]: 0
- Plant response rating, Bermudagrass [10, 18]: 0
- Bermudagrass plant response rating [10, 22]: 0
- Plant response rating, Bermudagrass [10, 19]: 0
- Plant response rating, Bermudagrass [10, 20]: 0
- Plant response rating, Bermudagrass [10, 21]: 70
- Cocklebur plant response rating ([11]; postemergence, 0-100 scale): 0
- Plant response rating, Cocklebur [11, 16]: 0
- Plant response rating, Cocklebur [11, 17]: 0
- Plant response rating, Cocklebur [11, 18]: 0
- Plant response rating, Cocklebur [11, 19]: 0
- Plant response rating, Cocklebur [11, 20]: 0
- Plant response rating, Cocklebur [11, 21]: 0
- Cocklebur plant response rating ([11]; Preemergence, scale 0 to 100): 0
